The values below come from patent US20190152962A1, “CYCLOPROPYL DERIVATIVES AS ROR-GAMMA MODULATORS” (CADILA HEALTHCARE LIMITED, priority 2016, published 2019).

Assay [1] deals with secreted IL-17 in peripheral blood mononuclear cells (PBMCs). Description: Human IL-17 inhibition assay. It counts as cell-based. As to conditions: PBMC, anti-CD3/anti-CD28, 72 h, read-out: IL17 IC50. The procedure:
Peripheral blood mononuclear cells (PBMCs) were isolated from healthy volunteers and subjected to T cell polarization assay. Two million PBMCs were placed on anti-CD3 (Biolegend, US) coated 96-well plates and 1 μg/mL of anti-CD28 (Biolegend, US) was added along with RORγt inhibitors or the vehicle control and incubated at 37° C. and 5% CO2 for 72 h. At the end of incubation time, the supernatant was collected and analyzed for secreted IL-17 using sandwich enzyme immunoassay (Mabtech AB, Sweden). The results were analyzed using Graphpad Prism and the half-maximal inhibitory concentrations (IC50) of the test compounds were derived (Table 4).

The target of assay [2] is T1, full length human RORγt (Homo sapiens, UniProt P51449).
T1 construct: full length human RORγt together in COS-7 cells; expressed in transfected cells; host or cells: COS-7
T1 sequence (P51449 1-497 isoform P51449-2): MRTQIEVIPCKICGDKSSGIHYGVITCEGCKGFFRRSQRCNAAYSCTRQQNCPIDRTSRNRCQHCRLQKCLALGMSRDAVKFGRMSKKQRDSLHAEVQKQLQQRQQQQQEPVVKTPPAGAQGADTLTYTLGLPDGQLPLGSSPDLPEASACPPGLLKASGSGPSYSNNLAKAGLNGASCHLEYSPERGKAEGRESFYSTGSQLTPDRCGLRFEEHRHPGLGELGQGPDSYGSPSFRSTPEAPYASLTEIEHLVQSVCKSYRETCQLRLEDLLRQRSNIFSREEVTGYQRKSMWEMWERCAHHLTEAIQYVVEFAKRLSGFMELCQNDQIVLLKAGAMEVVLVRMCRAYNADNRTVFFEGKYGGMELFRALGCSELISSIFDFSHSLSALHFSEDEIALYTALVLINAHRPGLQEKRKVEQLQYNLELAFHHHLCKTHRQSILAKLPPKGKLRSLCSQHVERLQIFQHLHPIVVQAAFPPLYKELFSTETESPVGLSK
Description: 5×RORE based luciferase assay. It counts as cell-based. Conditions: COS-7 cells transfected with 5×RORE-Luc and hRORγt, 18-20 h treatment. The procedure:
Human RORγt (hRORγt) inhibitors were screened in RORE (RORγt Response Element) based Luciferase assay by transient transfection of 5×RORE (5 tandem repeats of RORγt Response Element) and full length human RORγt together in COS-7 cells. COS-7 cells were maintained as monolayer in complete DMEM (High Glucose) medium in presence of 2 mM Glutamin and 1× Sodium Pyruvate. Day before transfection, 15000 cells were seeded in 96 well cell culture plate in 100 μl antibiotic free medium and incubated at 37° C. in 5% CO2 containing humidified chamber O/N. Prior to transfection, cells were fed with fresh complete growth medium and incubated until the addition of transfection complex. Transfection complex for the required numbers of wells were prepared from pGL2-promoter-5×RORE-Luc plasmid, pcDNA3.1 (+)-hRORγt expression plasmid, pβ-GAL plasmid (transfection control), and Lipofectamine 3000 (Invitrogen). 50 μl of transfection complex were added in 100 μl of complete medium to respective wells, mixed gently and plate was incubated for 5-6 h at 37° C. in 5% CO2 containing humidified chamber. After 5 h of transfection, content of the wells were aspirated and cells were treated with increasing concentration of RORγt inverse agonist in medium devoid of serum with a final DMSO concentration of 0.2% for 18-20 h at 37° C. in 5% CO2 containing humidified chamber. Next day, cells were lysed and the lysates were assayed for luciferase and β-GAL activity using Promega's luciferase assay system and an in-house made β-GAL assay buffer respectively. Luciferase signals were normalized with β-GAL and % activity was determined with respect to that of 10 nM control ligand.
IC50 of selected compounds were then determined by nonlinear regression analysis of % activity, plotted against compound concentration (Table 4).

On to `CCS(=O)(=O)c1ccc(CC(=O)Nc2cc(Cl)c(C3(c4noc(-c5ccc(OC)nc5)n4)CC3)c(Cl)c2)cc1` [Example 20, N-(3,5-dichloro-4-(1-(5-(6-methoxypyridin-3-yl)-1,2,4-oxadiazol-3-yl)cyclopropyl)phenyl)-2-(4-(ethylsulfonyl)phenyl)acetamide], for which the half-inhibitory concentration (IC50) (in general, the concentration at which inhibition is half-maximal) in assay [1] was 11.3 nM; in assay [2] it was 15.8 nM.
The like results for `CCS(=O)(=O)c1ccc(CC(=O)Nc2cc(Cl)c(C3(c4noc(C(C)C)n4)CC3)c(Cl)c2)cc1` [Example 23, N-(3,5-dichloro-4-(1-(5-isopropyl-1,2,4-oxadiazol-3-yl)cyclopropyl)phenyl)-2-(4-(ethylsulfonyl)phenyl)acetamide] were, in that order, 21 nM and 1.4 nM.
Turning to `CCS(=O)(=O)c1ccc(CC(=O)Nc2cc(Cl)c(C3(c4noc(C5CC5)n4)CC3)c(Cl)c2)cc1` [Example 25, N-(3,5-dichloro-4-(1-(5-cyclopropyl-1,2,4-oxadiazol-3-yl)cyclopropyl)phenyl)-2-(4-(ethylsulfonyl)phenyl)acetamide], the IC50 in assay [1] was 14 nM; in assay [2] it was 1.5 nM.
The like results for `CCS(=O)(=O)c1ccc(CC(=O)Nc2cc(Cl)c(C3(c4noc(C5CC(F)(F)C5)n4)CC3)c(Cl)c2)cc1` [Example 26, N-(3,5-dichloro-4-(1-(5-(3,3-difluorocyclobutyl)-1,2,4-oxadiazol-3-yl)cyclopropyl)phenyl)-2-(4-(ethylsulfonyl)phenyl)acetamide] were, in that order, 7.3 nM and 2.5 nM.
The matching figures for `CCS(=O)(=O)c1ccc(CC(=O)Nc2cc(Cl)c(C3(c4noc(C5CCOCC5)n4)CC3)c(Cl)c2)cc1` [Example 27, N-(3,5-dichloro-4-(1-(5-(tetrahydro-2H-pyran-4-yl)-1,2,4-oxadiazol-3-yl)cyclopropyl)phenyl)-2-(4-(ethylsulfonyl)phenyl)acetamide]: 10.8 nM and 13 nM.
The matching figures for `CCS(=O)(=O)c1ccc(CC(=O)Nc2cc(F)c(C3(c4noc(-c5ccc(F)cc5)n4)CC3)c(F)c2)cc1` [Example 28, N-(3,5-difluoro-4-(1-(5-(4-fluorophenyl)-1,2,4-oxadiazol-3-yl)cyclopropyl)phenyl)-2-(4-(ethylsulfonyl)phenyl)acetamide]: 41.6 nM and 5.8 nM.
In the case of `CCS(=O)(=O)c1ccc(CC(=O)Nc2cc(F)c(C3(c4noc(-c5ccc(F)cc5)n4)CC3)c(Cl)c2)cc1` [Example 29, N-(3-chloro-5-fluoro-4-(1-(5-(4-fluorophenyl)-1,2,4-oxadiazol-3-yl)cyclopropyl)phenyl)-2-(4-(ethylsulfonyl)phenyl)acetamide], the IC50 in assay [1] was found to be 19 nM; in assay [2], 19.4 nM.
The like results for `CCS(=O)(=O)c1ccc(CC(=O)Nc2cc(F)c(C3(c4noc(-c5ccc(C(F)(F)F)cc5)n4)CC3)c(Cl)c2)cc1` [Example 31, N-(3-chloro-5-fluoro-4-(1-(5-(4-(trifluoromethyl)phenyl)-1,2,4-oxadiazol-3-yl)cyclopropyl)phenyl)-2-(4-(ethylsulfonyl)phenyl)acetamide] were, in that order, 50 nM and 12.6 nM.
The like results for `CCS(=O)(=O)c1ccc(CC(=O)Nc2cc(F)c(C3(c4noc(-c5ccc(C#N)cc5)n4)CC3)c(Cl)c2)cc1` [Example 32, N-(3-chloro-4-(1-(5-(4-cyanophenyl)-1,2,4-oxadiazol-3-yl)cyclopropyl)-5-fluorophenyl)-2-(4-(ethylsulfonyl)phenyl)acetamide] were, in that order, 18 nM and 5.96 nM.
The matching figures for `CCS(=O)(=O)c1ccc(CC(=O)Nc2cc(C)c(C3(c4noc(-c5ccc(F)cc5)n4)CC3)c(C)c2)cc1` [Example 33, 2-(4-(ethylsulfonyl)phenyl)-N-(4-(1-(5-(4-fluorophenyl)-1,2,4-oxadiazol-3-yl)cyclopropyl)-3,5-dimethylphenyl)acetamide]: 24 nM and 20.2 nM.
As to `CCS(=O)(=O)c1ccc(CC(=O)Nc2cc(Cl)c(C3(c4nc(-c5ccc(F)cc5)no4)CC3)c(Cl)c2)cc1` [Example 35, N-(3,5-dichloro-4-(1-(3-(4-fluorophenyl)-1,2,4-oxadiazol-5-yl)cyclopropyl)phenyl)-2-(4-(ethylsulfonyl)phenyl)acetamide], the 50% inhibitory concentration (IC50) stood at 12 nM in assay [1] and 2.3 nM in assay [2].
The like results for `CCS(=O)(=O)c1ccc(CC(=O)Nc2cc(Cl)c(C3(c4nc5ccc(F)cc5o4)CC3)c(Cl)c2)cc1` [Example 36, N-(3,5-dichloro-4-(1-(6-fluorobenzo[d]oxazol-2-yl)cyclopropyl)phenyl)-2-(4-(ethylsulfonyl)phenyl)acetamide] were, in that order, 19 nM and 2.44 nM.
The like results for `CCS(=O)(=O)c1ccc(CC(=O)Nc2cc(Cl)c(C3(c4ncc(-c5ccc(F)cc5)o4)CC3)c(Cl)c2)cc1` [Example 38, N-(3,5-dichloro-4-(1-(5-(4-fluorophenyl)oxazol-2-yl)cyclopropyl)phenyl)-2-(4-(ethylsulfonyl)phenyl)acetamide] were, in that order, 23 nM and 1.5 nM.
With `CCS(=O)(=O)c1ccc(CC(=O)Nc2cc(Cl)c(C3(c4ncc(-c5ccc(Cl)cc5)o4)CC3)c(Cl)c2)cc1` [Example 39, N-(3,5-dichloro-4-(1-(5-(4-chlorophenyl)oxazol-2-yl)cyclopropyl)phenyl)-2-(4-(ethylsulfonyl)phenyl)acetamide], the results for the concentration for half-maximal inhibition (IC50) in assay [1] and in assay [2] were 22 nM and 22.5 nM, respectively.
The like results for `CCS(=O)(=O)c1ccc(CC(=O)Nc2cc(Cl)c(C3(c4noc(-c5ccc(F)cc5)n4)CC3)c(Cl)c2)nc1` [Example 41, N-(3,5-dichloro-4-(1-(5-(4-fluorophenyl)-1,2,4-oxadiazol-3-yl)cyclopropyl)phenyl)-2-(5-(ethylsulfonyl)pyridin-2-yl)acetamide] were, in that order, 15.5 nM and 0.76 nM.
The like results for `CCS(=O)(=O)c1ccc(CC(=O)Nc2cc(Cl)c(C3(c4noc(-c5ccc(F)c(F)c5)n4)CC3)c(Cl)c2)nc1` [Example 44, N-(3,5-dichloro-4-(1-(5-(3,4-difluorophenyl)-1,2,4-oxadiazol-3-yl)cyclopropyl)phenyl)-2-(5-(ethylsulfonyl)pyridin-2-yl)acetamide] were, in that order, 43 nM and 10.3 nM.
Turning to `CCS(=O)(=O)c1ccc(CC(=O)Nc2cc(Cl)c(C3(c4noc(-c5ccc(F)cc5Cl)n4)CC3)c(Cl)c2)nc1` [Example 46, N-(3,5-dichloro-4-(1-(5-(2-chloro-4-fluorophenyl)-1,2,4-oxadiazol-3-yl)cyclopropyl)phenyl)-2-(5-(ethylsulfonyl)pyridin-2-yl)acetamide], the IC50 in assay [1] worked out at 17.1 nM; in assay [2] it was 12.9 nM.
The matching figures for `CCS(=O)(=O)c1ccc(CC(=O)Nc2cc(Cl)c(C3(c4noc(-c5ccc(F)c(Cl)c5)n4)CC3)c(Cl)c2)nc1` [Example 47, N-(3,5-dichloro-4-(1-(5-(3-chloro-4-fluorophenyl)-1,2,4-oxadiazol-3-yl)cyclopropyl)phenyl)-2-(5-(ethylsulfonyl)pyridin-2-yl)acetamide]: 17.9 nM and 10.1 nM.
The matching figures for `CCS(=O)(=O)c1ccc(CC(=O)Nc2cc(Cl)c(C3(c4noc(-c5ccc(Cl)c(Cl)c5)n4)CC3)c(Cl)c2)nc1` [Example 48, N-(3,5-dichloro-4-(1-(5-(3,4-dichlorophenyl)-1,2,4-oxadiazol-3-yl)cyclopropyl)phenyl)-2-(5-(ethylsulfonyl)pyridin-2-yl)acetamide]: 38.9 nM and 10.5 nM.
